# According to patent US6982252B2, “Inhibition of vacuolar proton ATPase activity and/or the modulation of acidic organelle function sensitizes cells to radiation, chemotherapy and biological agents” (Memorial Sloan-Kettering Cancer Center, priority 2000, dated 2006):
# Where “and” joins values, the source holds several entries; their conditions need not be identical. Equal values may be shown once.
# Legend:
# [1] = subcutaneous, doses smaller than 1 mg/kg/day, cited from earlier work
# [2] = test system: DNA of irradiated MCF-7 cells; assay: DNA fragmentation by pulse field gel electrophoresis (PFGE); assay type: cell-based, human; conditions: bafilomycin A1 (4 nM) added two days following 10 Gy, for 24 hours
# Experimental: FIG. 6. Bafilomycin A1 enhances DNA fragmentation in irradiated cells: Cells were irradiated 48 hours post-plating and bafilomycin A1 (4 nM) was added 48 hours following irradiation, for the duration of 24 hours, from concentrated stock solution at dimethylsulfoxide (DMSO) to a final concentration of 4 nM. Control cells received the vehicle alone. Cells were harvested 72 hours following irradiation. Plug preparation and resolution of DNA was conducted according to Gilles et al. (2000, Blood 95:2930-2936). M-DNA size standard, lambda 50 kb ladder. A-Unirradiated controls. B-Cells irradiated with 10 Gy. C-Unirradiated cells incubated with 4 nM bafilomycin A1. D-Cells irradiated with 10 Gy and incubated with 4 nM bafilomycin A1. Window of DNA resolution was 20 kb-1000 kb. Arrow 1 points to sample origin. Arrow 2 points to zone of no resolution.
# DNA extraction and electrophoresis on agarose gel was carried out according to Bose et al., 1995, Cell 82:405-414. DNA preparation and resolution with pulse field gel electrophoresis (PFGE) was conducted as described in Gilles et al., 2000, Blood 95:2930-2936 utilizing the CHEF Mapper (Bio-Rad, Richmond, Calif.). DNA strand breaks were assayed by the TUNEL method and analyzed by flow cytometry (Haimovitz-Friedman, 1994, J. Exp. Med. 180:525-535).
# [3] = test system: MCF-7 (human breast adenocarcinoma); assay: Clonogenic survival (surviving fraction) of MCF-7 cells after radiation or chemotherapeutic agent; assay type: cell-based
# Experimental: MCF-7 (human breast adenocarcinoma), LoVo (human colon adenocarcinoma) and LNCaP (human prostate carcinoma) were obtained from the American Type Culture Collection. Cells were maintained as described in Paglin et al., 1997, Biochem. Biophs. Res. Comm. 237:678-684). Irradiation was carried out 48 hours post-plating (T0) at room temperature using a Cs-137 irradiator (Sheperd Mark-I, model 68, SN643) at a dose rate of 2.43-2.32 Gy/min. Bovine aortic endothelial cells were grown and treated with H2O2 as described in Haimovitz-Friedman et al., 1994, J. Exp. Med. 180:525-535 and Verhij et al., 1996, Nature 380:75-79. Phorbol 12-myristate 13-acetate (PMA; Alexis Biochemicals Corp., San Diego, Calif.) was dissolved in dimethyl sulfoxide (DMSO) and added to cells for the duration of one hour. The final DMSO concentration was 0.03%. The cells were then rinsed with warm growth medium before being returned to the incubator for an additional 48 hours.
# Cells were plated in growth medium at a density of 30-90 cells per square centimeter and irradiated 22 hours later. Each experimental condition was done in quintet or triplicate. Cells were irradiated at room temperature in Cs-137 Irradiator (Sheperd Mark-I, Model 68, SN 643) at a rate of 2.43-2.32 Gy/min. […] For determination of their red to green ratio, colonies were processed as described above. For determination of surviving fractions cells were stained with crystal violet and colonies containing 50 cells or more were counted with a dissecting microscope. The surviving fraction was defined as the ratio between the plating efficiencies of irradiated and non-irradiated cells and was calculated at each dose level according to Hall and Phill (1994, […] for the Radiologist, 4th Edition, J. Lippincott Co., Philadelphia).
# [4] = cited from earlier work
# [5] = Bafilomycin A1 8 nM, no radiation
# [6] = subcutaneous, 1.4 mol/kg/day for 14 days
substance,measurement,setting,value
bafilomycin A1,histological examination of organs,[1]; four weeks treatment,"did not affect the liver, pancreas, small intestine, kidney or lung"
same,growth of nude mice,"[1]; up to four weeks, Ohta et al., 1998",did not affect the growth
same,DNA cleavage into large fragments (20-1000 kb),[2],dramatically increased DNA clevage into large fragments
same,reduction of survival of irradiated cells,"[3]; 2 nM bafilomycin A1, 300 cGy, two separate experiments",45% and 32%
same,Surviving fraction in the presence of Baf A1 (2nM),"[3]; Baf A1 2nM added at irradiation for 24 hours, 2 Gy",0.51 ± 0.07
same,Surviving fraction in the presence of Baf A1 (2nM),"[3]; Baf A1 2nM added at irradiation for 24 hours, 3 Gy",0.23 ± 0.05
same,Surviving fraction in the presence of Baf A1 (2nM),"[3]; Baf A1 2nM for 24 hours, 0 Gy, listed as Baf A1",0.9 ± 0.14
same,Surviving fraction in the presence of Baf A1 (2nM),"[3]; Baf A1 2nM for 24 hours, 0 Gy, listed as bafilomycin A1",without significantly affecting
same,Normalized Surviving Fraction,"[3]; Bafilomycin A1 8 nM, 2 Gy",0.47
same,Plating Efficiency,"[3]; Bafilomycin A1 8 nM, 2 Gy",43 ± 7.7
same,Surviving Fraction,"[3]; Bafilomycin A1 8 nM, 2 Gy",0.26
same,Normalized Surviving Fraction,"[3]; Bafilomycin A1 8 nM, 4 Gy",0.11
same,Plating Efficiency,"[3]; Bafilomycin A1 8 nM, 4 Gy",21 ± 3.4
same,Surviving Fraction,"[3]; Bafilomycin A1 8 nM, 4 Gy",0.06
same,Normalized Surviving Fraction,"[3]; Bafilomycin A1 8 nM, 6 Gy",0.23
same,Plating Efficiency,"[3]; Bafilomycin A1 8 nM, 6 Gy",7 ± 3
same,Surviving Fraction,"[3]; Bafilomycin A1 8 nM, 6 Gy",0.01
same,Normalized Surviving Fraction,[3]; [5],1
same,Plating Efficiency,[3]; [5],98 ± 12
same,Surviving Fraction,[3]; [5],0.59
same,decrease of survival,"[3]; MCF-7, 2 nM bafilomycin, 100 nM adriamycin",34%
same,Surviving Fraction,"[3]; Table 4, 2 nM bafilomycin A1, 2 Gy",0.51 ± 0.07
same,Surviving Fraction,"[3]; Table 4, 2 nM bafilomycin A1, 4 Gy",0.17 ± 0.02
same,Surviving Fraction,"[3]; Table 4, 2 nM bafilomycin A1, 6 Gy",0.02 ± 0.003
same,decrease of survival following irradiation,"[3]; Table 4, 2 nM bafilomycin A1, 200 cGy",27%
same,decrease of survival following irradiation,"[3]; Table 4, 2 nM bafilomycin A1, 400 cGy",37%
same,decrease of cell survival following irradiation,"[3]; Table 5, 2 nM bafilomycin A1, 200 cGy",19%
same,decrease of cell survival following irradiation,"[3]; Table 5, 2 nM bafilomycin A1, 400 cGy",13%
same,Surviving Fraction,"[3]; Table 5, 2 nM bafilomycin A1, Radiation Dose (cGy) 0",1 ± 0.07
same,Surviving Fraction,"[3]; Table 5, 2 nM bafilomycin A1, Radiation Dose (cGy) 2",0.57 ± 0.04
same,Surviving Fraction,"[3]; Table 5, 2 nM bafilomycin A1, Radiation Dose (cGy) 4",0.27 ± 0.01
same,Surviving Fraction,"[3]; Table 5, 2 nM bafilomycin A1, Radiation Dose (cGy) 6",0.05 ± 0.01
same,reduction of survival,"[3]; Table 6, 2 nM bafilomycin, 3 Gy",37%
same,Surviving Fraction,"[3]; Table 6, 2 nM bafilomycin, X radiated 3 Gy",0.28 ± 0.03
same,Surviving Fraction,"[3]; Table 6, 4 nM bafilomycin, C non-irradiated control",0.7 ± 0.03
same,Surviving Fraction,"[3]; Table 6, 4 nM bafilomycin, X radiated 3 Gy",0.2 ± 0.03
same,Surviving Fraction,"[3]; Table 6, 8 nM bafilomycin, C non-irradiated control",0.66 ± 0.05
same,Surviving Fraction,"[3]; Table 6, 8 nM bafilomycin, X radiated 3 Gy",0.14 ± 0.02
same,Surviving Fraction,"[3]; Table 6, 16 nM bafilomycin, C non-irradiated control",0.52 ± 0.05
same,Surviving Fraction,"[3]; Table 6, 16 nM bafilomycin, X radiated 3 Gy",0.12 ± 0.03
same,Surviving Fraction,"[3]; Table 7, 2 nM bafilomycin A1, C non-irradiated",does not significantly affect
same,Surviving Fraction,"[3]; Table 7, 2 nM bafilomycin A1, C non-irradiated, listed as bafilomycin Al",0.92 ± 0.06
same,Surviving Fraction,"[3]; Table 7, 2 nM bafilomycin A1, X radiated 3 Gy",0.22 ± 0.04
same,reduction of cell survival,"[3]; Table 7, 2 nM bafilomycin, 300 cGy",49%
same,Surviving Fraction,"[3]; Table 7, 4 nM bafilomycin A1, C non-irradiated",0.79 ± 0.04
same,Surviving Fraction,"[3]; Table 7, 4 nM bafilomycin A1, X radiated 3 Gy",0.16 ± 0.04
same,Surviving Fraction,"[3]; Table 7, 8 nM bafilomycin A1, C non-irradiated",0.60 ± 0.08
same,Surviving Fraction,"[3]; Table 7, 8 nM bafilomycin A1, X radiated 3 Gy",0.12 ± 0.02
same,Surviving Fraction,"[3]; Table 7, 16 nM bafilomycin A1, C non-irradiated",0.35 ± 0.05
same,Surviving Fraction,"[3]; Table 7, 16 nM bafilomycin A1, X radiated 3 Gy",0.09 ± 0.04
same,survival (head of column empty),"[3]; Table 15, MCF-7, Bafilomycin 2 nM alone",0.95 ± 0.1
same,"survival, column Adriamycin","[3]; Table 15, MCF-7, Bafilomycin 4 nM + 100 nM adriamycin",0.35 ± 0.05
same,survival (head of column empty),"[3]; Table 15, MCF-7, Bafilomycin 4 nM alone",0.61 ± 0.05
same,"cell survival, Bafilomycin A1 (2 nM)","[3]; Table 18, MCF-7, Bafilomycin A1 2 nM + Etoposide 0.05 μg/ml",0.36 ± 0.08
same,reduction of the surviving fraction,[3]; bafilomycin A1 for 24 hours following irradiation with 2 and 3 Gy,30%-40%
same,toxicity when injected intravenously,"[4]; intravenous, Keeling, 1997",toxic
same,bone readsorption,[4]; [6],increased bone readsorption
same,toxicity,[4]; [6],non-toxic
same,tolerability when administered subcutaneously,[4]; subcutaneous,tolerated
